A word on the Ki: it is a measure of affinity in units of concentration, obtained from inhibition or displacement.

Test [1] concerns the target T1, partially purified human lung membrane-bound aminopeptidase P (Homo sapiens, UniProt O43895).
T1 construct: from tissue; host or cells: human lung microsomes
The experiment in a line: Aminopeptidase P inhibition, release of arginine from Arg-Pro-Pro (fluorescent assay). The format is biochemical. As to the method:
(§1) The IC50 of the compound of the present invention in relation to aminopeptidase P was also determined. […] The specificity of the compound of the present invention for other aminopeptidases was similarly determined as described in the Experimental Procedures herein.
(§2) Enzymes--Membrane-bound aminopeptidase P was purified to homogeneity from bovine lung (14) and from rat lung. Partially purified membrane-bound aminopeptidase P from human lung was obtained by treatment of lung microsomes with phosphatidylinositol-specific phospholipase C (B. thuringiensis) (ICN, Costa Mesa, Calif.) followed by centrifugation as described previously (14). Membrane dipeptidase was purified from rat lung microsomes (manuscript in preparation). Recombinant E. coli aminopeptidase P (22) and purified lamb kidney prolyl oligopeptidase (23) were generally supplied by Dr. Tadashi Yoshimoto (Nagasaki University). Purified porcine kidney prolidase and purified porcine kidney aminopeptidase M was obtained from Sigma (St. Louis, Mo.).
(§3) Enzyme Kinetics--Aminopeptidase P activity was determined by measuring the release of arginine from Arg-Pro-Pro by a fluorescent assay described previously (14). […] Each mixture was run in duplicate. Aliquots were removed from each incubation mixture at various times and assayed for the amount of arginine present to determine the reaction velocity. In general, reaction velocities were calculated from data representing less than 20% cleavage of substrate. Ki and Ki ' (=αKi) were determined from plots of 1/v versus concentration of inhibitor "i" (26) and S/v versus concentration of inhibitor "i" (27), respectively. These parameters were also determined from the slope replot and 1/v-intercept replot, respectively, of the 1/v versus 1/S plot (28). […] The values from the two treatments of the data were averaged for each experiment. Experiments for each enzyme preparation were performed twice and the results averaged.

In test [2] the target is T2, purified rat lung membrane-bound aminopeptidase P (Rattus norvegicus, UniProt Q99MA2).
T2 construct: from tissue; host or cells: rat lung
T2 sequence (Q99MA2 23-674): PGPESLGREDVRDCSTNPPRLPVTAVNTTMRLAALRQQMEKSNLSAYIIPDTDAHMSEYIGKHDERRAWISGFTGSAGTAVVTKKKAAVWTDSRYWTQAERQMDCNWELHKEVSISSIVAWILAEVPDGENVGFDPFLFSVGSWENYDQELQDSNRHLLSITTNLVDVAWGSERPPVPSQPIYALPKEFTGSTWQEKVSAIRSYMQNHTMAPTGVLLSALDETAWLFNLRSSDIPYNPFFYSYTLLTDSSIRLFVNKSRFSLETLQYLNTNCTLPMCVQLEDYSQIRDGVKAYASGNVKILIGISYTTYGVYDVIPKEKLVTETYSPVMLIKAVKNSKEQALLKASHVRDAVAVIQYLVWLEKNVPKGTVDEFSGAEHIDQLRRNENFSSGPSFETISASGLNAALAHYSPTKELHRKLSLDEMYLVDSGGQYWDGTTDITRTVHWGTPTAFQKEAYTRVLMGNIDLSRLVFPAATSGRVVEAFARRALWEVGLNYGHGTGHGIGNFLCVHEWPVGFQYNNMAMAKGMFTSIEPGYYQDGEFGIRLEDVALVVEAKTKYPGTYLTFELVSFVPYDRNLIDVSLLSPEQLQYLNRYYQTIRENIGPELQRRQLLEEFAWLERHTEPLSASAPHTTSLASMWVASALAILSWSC
The test is described as above. Type of test: biochemical. How it is done:
as §1, §2, §3

T1 sequence (O43895 22-674): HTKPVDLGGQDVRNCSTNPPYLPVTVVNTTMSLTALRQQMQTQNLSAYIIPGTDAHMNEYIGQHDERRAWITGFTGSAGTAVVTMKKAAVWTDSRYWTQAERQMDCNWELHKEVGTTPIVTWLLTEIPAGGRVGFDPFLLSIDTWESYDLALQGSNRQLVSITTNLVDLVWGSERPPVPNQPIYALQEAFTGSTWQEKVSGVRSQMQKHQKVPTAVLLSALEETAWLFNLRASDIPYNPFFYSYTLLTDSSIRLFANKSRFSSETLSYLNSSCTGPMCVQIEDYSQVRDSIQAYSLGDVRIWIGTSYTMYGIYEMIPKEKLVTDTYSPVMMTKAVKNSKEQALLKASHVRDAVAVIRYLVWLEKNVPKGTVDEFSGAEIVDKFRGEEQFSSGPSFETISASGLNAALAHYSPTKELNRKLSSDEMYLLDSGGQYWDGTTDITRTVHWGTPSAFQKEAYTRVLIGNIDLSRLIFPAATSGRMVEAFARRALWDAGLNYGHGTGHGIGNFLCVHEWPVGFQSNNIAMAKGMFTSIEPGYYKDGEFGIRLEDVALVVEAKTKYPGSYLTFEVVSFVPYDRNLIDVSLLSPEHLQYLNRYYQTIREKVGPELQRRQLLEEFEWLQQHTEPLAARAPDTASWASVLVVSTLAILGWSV

Consider `C[C@H](NC(=O)[C@@H]1CCCN1C(=O)[C@@H]1CCCN1C(=O)[C@@H](O)[C@H](N)Cc1ccccc1)C(N)=O` [apstatin, N-[(2S, 3R)-3-amino-2-hydroxy-4-phenylbutanoyl]-L-prolyl-L-prolyl-Lalaninamide], for which the type of inhibition entry in test [1] (human lung aminopeptidase P) and in test [2] (rat lung aminopeptidase P) was “linear mixed-type” throughout. The “α (αKi = equilibrium constant for enzyme-inhibitor binding at infinite substrate concentration)” value in test [1] (human lung, partially purified membrane-bound form) is 11; in test [2] (rat lung, purified membrane-bound form) it was 5.1. In addition, the “dependence of inhibition on Mn+2” value in test [2] is “not dependent on the presence of Mn^+2”. In addition, the reversibility of inhibition entry in test [2] (100-fold dilution of a preincubated enzyme-apstatin mixture) is recorded as “indicating reversibility”. For the same molecule, in test [2] (preincubation of rat aminopeptidase P for up to 2 hr. at 4° C. before addition of substrate), the “effect of preincubation on degree of inhibition (time-dependent or slow-tight binding inhibition)” value was “did not increase the degree of inhibition”. The molecule also gave a Ki in test [2] (rat lung, purified membrane-bound form, substrate Arg-Pro-Pro, 0.1 M Hepes pH 8.0, 39° C.) of 2.6 µM.

Values taken from patent publication US5656603A (Loyola University of Chicago, priority 1995, dated 1997).
